Key:
[1] = system: DLD1 cells (ATCC CCL-221); test: Cell viability assay (CellTiter-Glo), DLD1 cells; type: cell-based; conditions: Homo sapiens, DLD-1 cells, 48 h incubation, second value of the cell, read-out: Cell Viability (μM) DLD-1 (concentration that decreases cell viability by 50%)
Method: (§1) Cells (A549 ATCC CCL-185) are cultured in Dulbecco's Modified Eagle's Medium plus 10% foetal calf serum and 2 mM L-glutamine at 37° C., 5% CO2. Cells are plated onto white clear bottom 96-well plates (5000 cells/well in 200 μl media) and left to adhere overnight at 37° C., 5% CO2. Next day, test compound (1 μl at 200× concentration in 100% DMSO) is added to give final test compound concentration 1× in 0.5% DMSO. After 48 h of incubation at 37° C., 5% CO2, 20 μl CellTiter-Glo reagent (Promega G7572) is added into each well. Plates are incubated at room temperature with shaking for 30 min and then luminescence is read using a PheraStar plate reader. The concentration of compounds that decrease cell viability by 50% is calculated from dose response curves generated using Dotmatics data analysis software.
In the DLD1 cell assay, cells (ATCC CCL-221) are cultured in RPMI-1640 medium plus 10% foetal calf serum and 2 mM L-glutamine at 37° C., 5% CO2.

[2] = system: H358 cells (ATCC CRL-5807); test: Cell viability assay (CellTiter-Glo), H358 cells; type: cell-based; conditions: Homo sapiens, NCI-H358, 48 h incubation, first value of the cell, read-out: Cell Viability (μM) H358 (concentration that decreases cell viability by 50%)
Method: as §1
In the H358 cell assay, cells (ATCC CRL-5807) are cultured in RPM-1640 medium plus 10% foetal calf serum and 2 mM L-glutamine at 37° C., 5% CO2.

[3] = target: T1, GST-human KRas166 (G12V) GPPNHP (Homo sapiens, UniProt P01116, G12V); test: KRas small-molecule screening by SPR (BIACORE T200); type: binding; conditions: compound at final concentration of 100 uM; immobilised GST-KRAS166 (G12V) GPPNHP, GST reference channel
T1 construct: made in house; host or cells: E. coli C41(DE3)
In short: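 E. coli-expressed GST-KRas166 (G12V) was loaded with GPPNHP and captured on an anti-GST CM5 chip at 10,000–15,000 RU, with GST as the reference channel. Compounds were injected at 100 uM in buffer containing 100 mM NaCl, 5 mM MgCl2 and 5% DMSO, with solvent correction. Binding was measured by Biacore T200 SPR against a theoretical Rmax.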

CN(C)CC(=O)N[C@H]1CC[C@@H](N(Cc2ccn[nH]2)C[C@@H]2COc3ccc(OCc4ccccc4)cc3O2)CC1 [Example 51, N-{4-[((R)-7-Benzyloxy-2,3-dihydro-benzo[1,4]dioxin-2-ylmethyl)-(2H-pyrazol-3-ylmethyl)-amino]-cyclohexyl}-2-dimethylamino-acetamide]
IC50 [1]: 7.3 µM | IC50 [2]: 14 µM | SPR Response Units [3]: 166 Response Units

O=c1ccccn1CCN1CCN(C[C@@H]2COc3ccc(OCc4ccccc4)cc3O2)CC1 [Example 52, 1-{2-[4-((R)-7-Benzyloxy-2,3-dihydro-benzo[1,4]dioxin-2-ylmethyl)-piperazin-1-yl]-ethyl}-1H-pyridin-2-one]
IC50 [1]: 15 µM | IC50 [2]: > 100 µM | SPR Response Units [3]: 70 Response Units

O=C(Nc1ncc[nH]1)C1COc2ccc(OCc3ccccc3)cc2O1.O=CO (stereo not drawn) [Example 61, 7-Benzyloxy-2,3-dihydro-benzo[1,4]dioxine-2-carboxylic acid (1H-imidazol-2-yl)-amide; formic acid salt]
IC50 [1]: 13 µM | IC50 [2]: > 100 µM | SPR Response Units [3]: 25 Response Units

CN1CCN(Cc2cccc(CNC(=O)C3COc4ccc(OCc5ccccc5)cc4O3)c2)CC1 (stereo not drawn) [Example 62, 7-Benzyloxy-2,3-dihydro-benzo[1,4]dioxine-2-carboxylic acid 3-(4-methyl-piperazin-1-ylmethyl)-benzylamide]
IC50 [1]: 7 µM | IC50 [2]: 42 µM | SPR Response Units [3]: 93 Response Units

O=C(NCc1ccc(CN2CCNCC2)cc1)C1COc2ccc(OCc3ccccc3)cc2O1 (stereo not drawn) [Example 74, 7-Benzyloxy-2,3-dihydro-benzo[1,4]dioxine-2-carboxylic acid 4-piperazin-1-ylmethyl-benzylamide]
IC50 [1]: 16.7 µM | IC50 [2]: 21.3 µM | SPR Response Units [3]: 115 Response Units

CN1CCC2(CC1)NC(=O)N(C[C@@H]1COc3ccc(OCc4ccccc4)cc3O1)C2=O [Example 77, 3-((R)-7-Benzyloxy-2,3-dihydro-benzo[1,4]dioxin-2-ylmethyl)-8-methyl-1,3,8-triaza-spiro[4.5]decane-2,4-dione]
IC50 [1]: 4 µM | IC50 [2]: 59 µM | SPR Response Units [3]: 49 Response Units

O=C1CN(C2CCNCC2)C(=O)N1C[C@@H]1COc2ccc(OCc3ccccc3)cc2O1 [Example 79, 3-((R)-7-Benzyloxy-2,3-dihydro-benzo[1,4]dioxin-2-ylmethyl)-1-piperidin-4-yl-imidazolidine-2,4-dione]
IC50 [1]: 9 µM | IC50 [2]: 50 µM | SPR Response Units [3]: 72 Response Units

NCC(=O)N[C@H]1CC[C@@H](NC(=O)C2COc3ccc(OCc4ccccc4)cc3O2)CC1 (stereo partly drawn) [Example 85, 7-Benzyloxy-2,3-dihydro-benzo[1,4]dioxine-2-carboxylic acid [4-(2-amino-acetylamino)-cyclohexyl]-amide]
IC50 [1]: 10 µM | IC50 [2]: > 100 µM | SPR Response Units [3]: 64 Response Units
